Measurements from patent publication US9512425B2, “Inhibiting migration of cancer cells” (Cornell University, priority 2012, dated 2016).

Key:
[1] = test system: metastatic prostate cancer cells PC3; test: Migration of PC3 cells with ectopic miR-708; assay type: cell-based, human; details: ectopic expression of miR-708 in PC3
[2] = test system: Nnat 3'-UTR; test: 3'-UTR dual luciferase assay; assay type: cell-based, human
Method: (§1) The 3′-UTR of a gene of interest was amplified by PCR and cloned into a pmirGLO Dual-Luciferase miRNA Target Expression Vector (Promega). To express miRNA, synthetic premiRNA precursor for miR-708 and control scrambled miRNA were purchased from Applied Biosystems (Ambion). The miRNA precursor and pmirGLO Dual-Luciferase 3′-UTR vector were co-transfected into […] cells using the siPORT NeoFX Transfection Agent following manufacturer's instructions (Ambion). Cells were harvested and lysed at 48 hr post-transfection. The interaction between miR-708 and target 3′-UTR was measured by Dual-luciferase assay system (Promega).

[3] = test system: Akt2; test: Akt2 suppression in breast cancer cells (data not shown); assay type: cell-based
[4] = test system: MDA cells; test: Cell proliferation assay (EdU); assay type: cell-based, human; details: MDA cells transformed with miR-708 lentiviral expression system
Method: For cell proliferation assays, 1×10^6 MDA cells were cultured separately in suspension in non-adhesive 6-well dishes (Corning Inc) for 2 days. EdU ([…]) was administrated to culture medium for 30 min to label proliferating cells. Cells were harvested, washed once with PBS, and fixed with 4% paraformaldehyde for 15 min at room temperature. Fixed cells were permeabilized and stained for EdU incorporation and DNA contains with the Click-iT® EdU Cell Proliferation Assay kit (Invitrogen Inc) according to the standard protocol. Flow analyses of cell phases were performed using an LSRII coupled with Diva software (BD Bioscience).

[5] = test system: p-FAK (S910); test: Western blot and immunostaining of p-FAK; assay type: cell-based, human
Method: Cells were homogenized in 1×RIPA lysis buffer (Millipore) containing protease inhibitors (Roche Applied Science) and 1× phosphatase inhibitor (Thermo Scientific). Samples were boiled in 1× NuPAGE LDS sampling buffer (Invitrogen), and loaded onto 4-20% gradient Tris-HCl gels (BioRad). Western blotting was performed using antibodies specific for NNAT (Cat#AB27266, Abcam), EPDR1 (Cat# SC81820, Santa Cruz), SSRP1 (Cat#SC56782, Santa Cruz), HOXB3 (Cat# SC17161, Santa Cruz), HNRNPK (Cat# SC28380, Santa Cruz), CNTFR, Phospho-p44/42 MAPK (Erk1/2, Cat #4370, Cell Signaling), p44/42 MAPK (Erk1/2, Cat #4695, Cell Signaling), VINCULIN (Cat#V9131, Sigma-Aldrich), and β-ACTIN (Sigma-Aldrich).
For immunofluorescence staining, cells were fixed overnight in paraformaldehyde before incubation with primary antibodies; mouse-monoclonal VINCULIN (Cat#V9131, Sigma-Aldrich, 1:400) and rabbit-polyclonal phosphorylated FAK (pS910, Cat #44596G, Invitrogen, 1:1000). Alexa Flour 568 or Alexa Fluor 647 anti-mouse IgG, and Alexa Fluor 647 anti-rabbit IgG (Invitrogen), were used for visualization. Following incubation with secondary antibodies the tissue sections were treated with Rhodamine Phalloidin (Cat# R415, Invitrogen). […] Images were analyzed using Axiovision 4.6 software (Carl Zeiss Inc.).

[6] = test system: MDA-MB-231 cells; test: Orthotopic MDA tumor / pulmonary metastasis model, bioluminescence imaging; assay type: in vivo, CB-17 SCID mice
Method: For orthotopic injection, 1×10^6 viable MDA-MB-231, MDA-Cont, or MDA-miR-708 cells were injected into CB-17 SCID mice fat pads in a volume of 0.1 ml. Tumor growth and pulmonary metastases (following resection of primary tumor) were monitored by live animal bioluminescent imaging (Xenogen IVIS system) once per week.
Mice inoculated with firefly luciferase were anaesthetized and injected retro-orbitally with 75 mg/kg of D-luciferin (30 mg/mL in PBS). Images were taken with mice in a supine position using the Xenogen IVIS system coupled to Living Image acquisition and analysis software (Xenogen). For bioluminescence (BLI) plots, photon flux was calculated for each mouse by using a rectangular region of interest encompassing the thorax of the mouse.

[7] = test system: Nnat; test: Nnat expression in MDA-MB-436 cells overexpressing miR-708; assay type: cell-based, human; details: MDA-MB-436 cells expressing miR-708
Method: Total RNA was extracted using the RNeasy kit (Qiagen) and converted to cDNA using Superscript II reverse transcriptase (Invitrogen). QPCR primers for Nnat were purchased from SABiosciences (Cat #PPT11378, SABiosciences), and quantitative PCR performed using iQ™ SYBER Green master mix (Biorad, Hercule, Calif.). Each sample was run in triplicate to minimize pipetting error. A standard protocol of initial denaturation at 95° C. for 3 min, 40 cycles of 95° C. for 20 sec, 60° C. for 30 sec, and 72° C. for 30 sec, followed by final extension at 72° C. for 5 min and melt curve analysis was applied on a Biorad CFX96 Real Time System (BioRad) coupled with Bio-Rad-CFX Manager software. The relative abundance of each transcript was compared with the control.

[8] = test system: Gon4l 3'-UTR; test: 3'-UTR dual luciferase assay; assay type: cell-based; details: 293T cells, Renilla/Firefly ratio
Method: as §1

[9] = test system: Ntrk2 3'-UTR; test: 3'-UTR dual luciferase assay; assay type: cell-based; details: 293T cells, Renilla/Firefly ratio
Method: as §1

[10] = test system: CD44 3'-UTR; test: 3'-UTR dual luciferase assay; assay type: cell-based; details: 293T cells, Renilla/Firefly ratio
Method: as §1

miR-708: microRNA, mature sequence 5'-AAGGAGCUUACAAUCUAGCUGGG-3' (SEQ ID NO: 2); expressed from lentiviral vector or used as synthetic precursor
migration [1]: suppressed migration | repression of 3'-UTR luciferase reporter ([2]; 293T cells, Renilla/Firefly ratio): significant repression | repression of wild type UTR (Nnat-UTR) reporter ([2]; synthetic miR-708 vs scrambled miRNA, intact UTR): effectively suppressed | repression of mutant UTR (Nnat-UTR-mut) reporter ([2]; synthetic miR-708 vs scrambled miRNA, mutated binding site): refractory to suppression | Akt2 suppression [3]: not suppressed | cell proliferation [4]: No significant change | p-FAK levels following ATP-mediated Ca^2+ release ([5]; Western blot, MDA-miR-708 vs MDA cells): increased in MDA and not in MDA-miR-708 cells | p-FAK at vinculin+ focal adhesions ([5]; immunostaining, MDA-miR-708 cells): devoid of p-FAK | primary tumor growth (bioluminescence imaging) ([6]; MDA-miR-708 vs MDA-pZeo control, day 30): no change | lung metastases (bioluminescence) ([6]; MDA-miR-708 vs control, primary tumors resected day 30, day 37): significantly suppressed | primary tumor growth (bioluminescence) ([6]; constitutive miR-708 in MDA cells, mammary fat pad, day 60): no significant difference | lung metastases (bioluminescence) ([6]; constitutive miR-708 in MDA cells, primary tumors resected day 60, day 74): suppressed lung metastases | primary tumor growth ([6]; doxycycline-mediated induction of miR-708, day 60): not affected | metastases ([6]; doxycycline-mediated induction of miR-708, day 74): attenuated metastases | Nnat levels [7]: decreased levels of Nnat | repression of 3'-UTR luciferase reporter [8]: significant repression | repression of 3'-UTR luciferase reporter [9]: significant repression | repression of 3'-UTR luciferase reporter [10]: significant repression
